Data as given in PubChem BioAssay AID2060327 (Molecular Pharmacology Branch, DTP, NCI, 2025).
pIC50: −log10 of the molar value. Values joined by “and” are separate entries in the source; they are usually repeats but may differ in a detail not shown here. Equal entries are not always repeated.

Tested on: PC-3 multi-cell spheroids, viability
Assay: Anticancer human tumor PC-3 cell line growth inhibition [IpAb];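 note: spheroids exposed to compounds for 7 days before readout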;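 for viability, T/C: 100% = DMSO vehicle control wells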
Settings: for viability, T/C: stronger effect = lower value
In short: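 Spheroids of 60% malignant cells, 25% HUVEC and 15% MSC were exposed to targeted agents combined with ipatasertib or abemaciclib. Doses started at or near clinical Cmax (10 microM when unknown) and fell in half-log steps.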

[1] = curve of first compound, second compound 0.01 µM
[2] = curve of first compound, second compound 0.0316 µM
[3] = curve of first compound, second compound 0.1 µM
[4] = curve of first compound, second compound 0.316 µM
[5] = curve of first compound, second compound 1 µM

## CC(C)(C)c1cnc(CSc2cnc(NC(=O)C3CCNCC3)s2)o1 + CCN1CCN(Cc2ccc(Nc3ncc(F)c(-c4cc(F)c5nc(C)n(C(C)C)c5c4)n3)nc2)CC1
[1]
  pIC50: 6.76
[2]
  pIC50: 6.84
[3]
  pIC50: 7.01
[4]
  pIC50: 7.42
[5]
  pIC50: > 8.02
Second compound 0.01 µM, first compound 0.00949 µM
  viability, T/C: 75.9%
Second compound 0.01 µM, first compound 0.03 µM
  viability, T/C: 103%
Second compound 0.01 µM, first compound 0.0949 µM
  viability, T/C: 113%
Second compound 0.01 µM, first compound 0.3 µM
  viability, T/C: 7.99%
Second compound 0.01 µM, first compound 0.949 µM
  viability, T/C: 6.01%
Second compound 0.01 µM, first compound 3 µM
  viability, T/C: 7.44%
Second compound 0.0316 µM, first compound 0.00949 µM
  viability, T/C: 63.5%
Second compound 0.0316 µM, first compound 0.03 µM
  viability, T/C: 71.5%
Second compound 0.0316 µM, first compound 0.0949 µM
  viability, T/C: 94.4%
Second compound 0.0316 µM, first compound 0.3 µM
  viability, T/C: 4.86%
Second compound 0.0316 µM, first compound 0.949 µM
  viability, T/C: 4.92%
Second compound 0.0316 µM, first compound 3 µM
  viability, T/C: 7.51%
Second compound 0.1 µM, first compound 0.00949 µM
  viability, T/C: 69.1%
Second compound 0.1 µM, first compound 0.03 µM
  viability, T/C: 73.4%
Second compound 0.1 µM, first compound 0.0949 µM
  viability, T/C: 51.5%
Second compound 0.1 µM, first compound 0.3 µM
  viability, T/C: 3.51%
Second compound 0.1 µM, first compound 0.949 µM
  viability, T/C: 6%
Second compound 0.1 µM, first compound 3 µM
  viability, T/C: 7.79%
Second compound 0.316 µM, first compound 0.00949 µM
  viability, T/C: 55.9%
Second compound 0.316 µM, first compound 0.03 µM
  viability, T/C: 54.3%
Second compound 0.316 µM, first compound 0.0949 µM
  viability, T/C: 30.5%
Second compound 0.316 µM, first compound 0.3 µM
  viability, T/C: 4.21%
Second compound 0.316 µM, first compound 0.949 µM
  viability, T/C: 5.66%
Second compound 0.316 µM, first compound 3 µM
  viability, T/C: 7.81%
Second compound 1 µM, first compound 0.00949 µM
  viability, T/C: 44.7%
Second compound 1 µM, first compound 0.03 µM
  viability, T/C: 36.5%
Second compound 1 µM, first compound 0.0949 µM
  viability, T/C: 22.7%
Second compound 1 µM, first compound 0.3 µM
  viability, T/C: 4.97%
Second compound 1 µM, first compound 0.949 µM
  viability, T/C: 7.15%
Second compound 1 µM, first compound 3 µM
  viability, T/C: 8.41%

## CCCS(=O)(=O)Nc1ccc(F)c(C(=O)c2c[nH]c3ncc(-c4ccc(Cl)cc4)cc23)c1F
Compound 0.0316 µM
  viability, T/C: 118% and 111%
Compound 0.1 µM
  viability, T/C: 106% and 99.5%
Compound 0.316 µM
  viability, T/C: 114% and 111%
Compound 1 µM
  viability, T/C: 111% and 101%
Compound 3.16 µM
  viability, T/C: 118% and 112%
Compound 10 µM
  viability, T/C: 72.7% and 67.1%
Curve of compound
  pIC50: < 5.00

## CC(C)n1nc(-c2ccc3oc(N)nc3c2)c2c(N)ncnc21 + CCN1CCN(Cc2ccc(Nc3ncc(F)c(-c4cc(F)c5nc(C)n(C(C)C)c5c4)n3)nc2)CC1
[1]
  pIC50: 8.70
[2]
  pIC50: 8.68
[3]
  pIC50: 8.71
[4]
  pIC50: 8.74
[5]
  pIC50: 8.94
Second compound 0.01 µM, first compound 0.000316 µM
  viability, T/C: 81.9%
Second compound 0.01 µM, first compound 0.001 µM
  viability, T/C: 56.2%
Second compound 0.01 µM, first compound 0.00316 µM
  viability, T/C: 48.6%
Second compound 0.01 µM, first compound 0.01 µM
  viability, T/C: 25.9%
Second compound 0.01 µM, first compound 0.0316 µM
  viability, T/C: 11%
Second compound 0.01 µM, first compound 0.1 µM
  viability, T/C: 10%
Second compound 0.0316 µM, first compound 0.000316 µM
  viability, T/C: 55.2%
Second compound 0.0316 µM, first compound 0.001 µM
  viability, T/C: 55.7%
Second compound 0.0316 µM, first compound 0.00316 µM
  viability, T/C: 47%
Second compound 0.0316 µM, first compound 0.01 µM
  viability, T/C: 18.6%
Second compound 0.0316 µM, first compound 0.0316 µM
  viability, T/C: 11.7%
Second compound 0.0316 µM, first compound 0.1 µM
  viability, T/C: 9.52%
Second compound 0.1 µM, first compound 0.000316 µM
  viability, T/C: 59.1%
Second compound 0.1 µM, first compound 0.001 µM
  viability, T/C: 54.8%
Second compound 0.1 µM, first compound 0.00316 µM
  viability, T/C: 45.7%
Second compound 0.1 µM, first compound 0.01 µM
  viability, T/C: 20%
Second compound 0.1 µM, first compound 0.0316 µM
  viability, T/C: 11.2%
Second compound 0.1 µM, first compound 0.1 µM
  viability, T/C: 9.73%
Second compound 0.316 µM, first compound 0.000316 µM
  viability, T/C: 65.3%
Second compound 0.316 µM, first compound 0.001 µM
  viability, T/C: 61.8%
Second compound 0.316 µM, first compound 0.00316 µM
  viability, T/C: 39.2%
Second compound 0.316 µM, first compound 0.01 µM
  viability, T/C: 20.1%
Second compound 0.316 µM, first compound 0.0316 µM
  viability, T/C: 13.7%
Second compound 0.316 µM, first compound 0.1 µM
  viability, T/C: 10.8%
Second compound 1 µM, first compound 0.000316 µM
  viability, T/C: 55.4%
Second compound 1 µM, first compound 0.001 µM
  viability, T/C: 54.3%
Second compound 1 µM, first compound 0.00316 µM
  viability, T/C: 35.3%
Second compound 1 µM, first compound 0.01 µM
  viability, T/C: 24.1%
Second compound 1 µM, first compound 0.0316 µM
  viability, T/C: 15.7%
Second compound 1 µM, first compound 0.1 µM
  viability, T/C: 13.8%
